Test results as given in patent US6156899A, “N-aryl-2-hydroxyalkylamido compositions for inducing/stimulating hair growth and/or retarding hair loss and/or for treating hyperseborrhea and/or acne” (Societe L'Oreal S.A., priority 1997, dated 2000).
Read-outs that look alike come from different tables or passages of the source.

Tests used:
[1] = molecular target: T1, androgen receptor (Rattus norvegicus, UniProt P15207); assay: Affinity (IC50) for the androgen receptor: inhibition of the binding of testosterone (Schilling and Liao technique)
T1 sequence (P15207 1-902): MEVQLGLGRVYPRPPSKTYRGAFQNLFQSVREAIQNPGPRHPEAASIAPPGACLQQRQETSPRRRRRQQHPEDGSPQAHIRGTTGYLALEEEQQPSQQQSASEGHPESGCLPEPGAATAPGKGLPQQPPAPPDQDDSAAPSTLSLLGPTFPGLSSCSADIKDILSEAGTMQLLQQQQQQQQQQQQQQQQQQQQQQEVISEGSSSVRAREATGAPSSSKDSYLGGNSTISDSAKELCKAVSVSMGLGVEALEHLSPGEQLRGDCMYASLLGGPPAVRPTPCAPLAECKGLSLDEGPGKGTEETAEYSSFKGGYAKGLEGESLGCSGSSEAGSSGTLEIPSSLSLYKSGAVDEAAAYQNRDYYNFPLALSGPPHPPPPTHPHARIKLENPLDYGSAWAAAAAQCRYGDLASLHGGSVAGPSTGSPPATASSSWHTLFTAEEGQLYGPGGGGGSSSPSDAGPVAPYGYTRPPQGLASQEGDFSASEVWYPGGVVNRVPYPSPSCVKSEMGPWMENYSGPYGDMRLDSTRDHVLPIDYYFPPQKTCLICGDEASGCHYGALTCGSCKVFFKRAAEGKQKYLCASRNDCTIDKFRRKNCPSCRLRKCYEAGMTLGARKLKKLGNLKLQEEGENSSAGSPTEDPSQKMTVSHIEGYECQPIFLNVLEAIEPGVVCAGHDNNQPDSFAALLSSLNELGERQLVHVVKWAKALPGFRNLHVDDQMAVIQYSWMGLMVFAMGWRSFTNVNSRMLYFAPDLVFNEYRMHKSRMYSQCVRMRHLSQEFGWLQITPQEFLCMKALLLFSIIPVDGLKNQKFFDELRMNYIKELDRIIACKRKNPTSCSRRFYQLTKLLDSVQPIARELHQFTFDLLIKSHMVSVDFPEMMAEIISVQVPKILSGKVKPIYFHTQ
Protocol: Measurement of the Affinity (IC50) of the Ethyl Ester of (4-Cyano-3-(trifluoromethyl)phenyl)(3,3,3-trifluoro-2-hydroxy-2-methylpropionyl)carbamic Acid (Example 1) and of (4-Cyano-3-(trifluoromethyl)phenyl)(3,3,3-trifluoro-2-hydroxy-2-methylpropionyl)carbamic Acid (Example 2) for the Androgen Receptor:
These measurements of receptor affinity for the androgen receptor were carried out according to the technique of Schilling and Liao, described in The Prostate, 5, p. 581-588 (1984).
During the experimentation, the reference molecule (mibolerone) was tested in parallel at 8 concentrations, in order to validate the experiment.

[2] = test system: rings of the thoracic region of the aorta (aortic smooth muscles); assay: Potassium channel opener activity: in vitro relaxant power on rings of the thoracic region of the aorta contracted with KCl; assay type: cell-based; conditions: for mixed activity (potassium channel opener/antiandrogen): conclusion from Tables I and II; for IC50: read-out: Inhibition contraction isolated aorta induced by K+: IC50
Protocol: Measurement of the Activity of "Potassium Channel Opener" Type of the Ethyl Ester of (4-Cyano-3-(trifluoromethyl)phenyl)(3,3,3-trifluoro-2-hydroxy-2-methylpropionyl)carbamic Acid (Example 1) and of (4-cyano-3-(trifluoromethyl)phenyl)(3,3,3-trifluoro-2-hydroxy-2-methylpropionyl)carbamic Acid (Example 2) by the in Vitro Measurement of the Relaxant Power of the Molecules on Rings of the Thoracic Region of the Aorta (IC50):
The experiments were carried out according to the techniques of Newgreen et al. (Br. J. Pharmacol., 100, p. 605-613 (1990)), Bray et al. (Arch. Pharmacol., 344, p. 351-359 (1991)) and Wickerden et al. (Br. J. Pharmacol., 103, 1148-1152 (1991)).
After they had been mounted into the isolated organ vessels, the tissues (aortic smooth muscles) were subjected to an initial tension of 2 g.
After an equilibration period, the tissues were exposed to a potassium chloride solution (20 mM KCl), in order to obtain a sustained contractile response.
After stabilization of this contractile response, the relaxant activity (of potassium channel opener type) of the test molecules was evaluated as a function of the concentration applied.
During the experimentation, two reference molecules were employed: cromakalim and minoxidil.

[3] = 20 mM KCl, thoracic aorta rings, initial tension 2 g

Row | Structure (SMILES) | IC50 [1] [µM] | mixed activity (potassium channel opener/antiandrogen) [2] | IC50 [2] [µM] | IC50 [2, 3] [µM]
1 | CCOC(=O)N(C(=O)C(C)(O)C(F)(F)F)c1ccc(C#N)c(C(F)(F)F)c1 (centres unmarked) [Example 1, Ethyl Ester of (4-Cyano-3-(trifluoromethyl)phenyl)(3,3,3-trifluoro-2-hydroxy-2-methylpropionyl)carbamic Acid] | 2 | mixed activity | 2 | –
2 | CC(O)(C(=O)N(C(=O)O)c1ccc(C#N)c(C(F)(F)F)c1)C(F)(F)F (centres unmarked) [Example 2, (4-Cyano-3-(trifluoromethyl)phenyl)(3,3,3-trifluoro-2-hydroxy-2-methylpropionyl)carbamic Acid] | 4 | mixed activity | 3 | –
3 | CC1(C)Oc2ccc(C#N)cc2C(N2CCCC2=O)C1O (centres unmarked) [cromakalim, reference compound] | – | – | – | ~1
4 | Nc1cc(N2CCCCC2)nc(N)[n+]1[O-] [minoxidil, 2,4-diamino-6-piperidinopyrimidine 3-oxide, reference compound] | – | – | – | ~1
